In US11583533B2, “Topical pharmaceutical compositions comprising 2-[3-[4-amino-3-(2-fluoro-4-phenoxy-phenyl)-1H-pyrazolo[3,4-d]pyrimidin-1-yl]piperidine-1-carbonyl]-4,4-dimethylpent-2-enenitrile” (Principia Biopharma Inc., priority 2020, dated 2023):

Test: Skin penetration of Compound (I) into the dermis and epidermis
Assay type: in vitro ADME
Conditions: human abdominal skin from elective surgery (500±50 μm)
Experimental: Using skin from one donor (n=4-5 replicates per condition) and a receptor solution comprising phosphate/citrate buffer pH 5.6 with 0.01% Brij 98, a dose of 10 mg/cm^2 Compound (I) was applied in the form of one of three 2% Compound (I) gel formulations comprising one of crystalline Form (I), amorphous Compound (I), or crystalline Form (II). Samples were collected every 3 hours for 24 hours. Prior to separating the epidermis and dermis, the residual formulation was removed from the surface of the skin, and then the skin surface was tape stripped up to 5 times to remove residual formulation and the top of the skin surface layers (stratum corneum). The dermis and epidermis were separated by heating to 60° C. for 2 minutes, followed by manual separation using forceps. The extraction fluid used was 90:10 acetonitrile:water with 0.1% BHT. Epidermis and dermis samples were homogenized, then shaken at 130 RPM overnight, and transferred to lo-bind DW96 plates.

SMILES: CC(C)(C)C=C(C#N)C(=O)N1CCCC(n2nc(-c3ccc(Oc4ccccc4)cc3F)c3c(N)ncnc32)C1 (stereo not shown) [Compound (I), 2-(3-(4-amino-3-(2-fluoro-4-phenoxyphenyl)-1H-pyrazolo[3,4-d]pyrimidin-1-yl)piperidine-1-carbonyl)-4,4-dimethylpent-2-enenitrile]
- ability to penetrate skin into the dermis and epidermis: able to penetrate
